{"source": "patent US5298494A", "about": "“Monosaccharides having anti-proliferation and anti-inflammatory activity, compositions and uses thereof” (Greenwich Pharmaceuticals Incorporated, priority 1993, dated 1994)", "key": {"[1]": {"test_system": "BUD-8 human skin fibroblasts", "test": "Fibroblast assay: proliferation of BUD-8 skin cell fibroblasts", "type": "cell-based", "description": "The human skin cell fibroblast line, BUD-8 was obtained prior to each assay from the American Type Culture Collection. This is a fibroblast-like cell line which was originally derived from the normal skin of a person.\nBUD-8 cell cultures were expanded for use in 25 cm^2 flasks at 37° C. in an atmosphere of 5% CO2 in air. At approximately 4-5 five day intervals, or when confluence was reached, the cells were passaged. This was accomplished by detaching the cells with a Teflon scraper, washing and reseeding the cells at a lower density into fresh tissue culture flasks.\n(§1) The effect of the compound of the present invention on the proliferative capacity of human BUD-8 skin fibroblasts was measured with the use of a ^3 H-thymidine incorporation assay using culture conditions which were similar to those used for a Con-A blastogenesis assay, described previously. Cultured skin cells were detached from the surface of tissue culture flasks mechanically with a Teflon scraper. The cells were washed, resuspended in incubation medium and the viabilities were determined. These cells were then plated in triplicate at a density of 2×10^3 cells/0.1 ml/microtiter well for the proliferation assay and a density of 1×10^4 cells/0.1 ml/microtiter well for the assays to quantitate PGE2 and LTB4. To these cells was added incubation medium containing indomethacin to inhibit prostaglandin production, or nordihydroguaiaretic acid (NDGA) to inhibit leukotriene production (positive controls).\n(§2) After 3 days of culture, 1 uCi ^3 H-thymidine was added in a 50 ul volume to each culture well of the microtiter plates. Eighteen hours later, each of the BUD-8 cultures was examined morphologically for evidence of compound-induced toxicity such as cell rounding or granularity. The thymidine-pulsed cells were then precipitated and the amount of ^3 H-thymidine incorporated was counted in a liquid scintillation counter.\nThe concentrations of the compounds of the invention which were used in these assays were:\nThe incubation medium used for culturing the BUD-8 cells was RPMI-1640 medium containing 10% fetal bovine serum, 100 ug/ml streptomycin, 100 U/ml penicillin, 0.2M Hepes buffer solution, 5×10^-5 M 2-mercaptoethanol and 2 mM glutamine."}, "BUD-8 skin cells": {"test_system": "BUD-8 skin cells", "test": "Morphological examination of BUD-8 cultures for compound-induced toxicity", "type": "cell-based, human", "description": "as §2"}, "[2]": {"test_system": "Interleukin 1 (IL-1) production by peritoneal macrophages", "test": "IL-1 Assay: production of interleukin-1 by peritoneal macrophages (thymocyte bioassay)", "type": "cell-based, mouse (C57B1/6)", "design": "inhibition: dose or concentration left out as unconfirmed", "text": "Interleukin 1 (IL-1) is a potent immunomodulatory cytokine that has a broad range of pro-inflammatory activities. IL-1 is known to be produced by activated accessory cells such as macrophages. Accessory cell production of IL-1 results in the activation and proliferation of T and B lymphocytes. Therefore, by inhibiting macrophage activation and production of IL-1, the activation and proliferation of the cellular effectors of inflammation can be modulated. Compounds of the invention were screened for inhibitory activity in a classical IL-1 assay. Six to 8 week old male C57B1/6 mice were purchased from Harlan Sprague Dawley. Peritoneal macrophages were elicited by the administration to mice of a single intraperitoneal injection of 0.2 ml of complete Freund's adjuvant. After 48 hours, elicited macrophages were removed from the mice by lavage with the use of Hank's balanced salt solution. […] To the macrophage cultures were added various doses of the compounds of the invention and 10 ug/ml of the macrophage activator lipopolysaccharide (to stimulate IL-1 production). Control cultures consisted of macrophages, lipopolysaccharide and culture medium containing various doses of DMSO only. […] The amount of IL-1 produced in the individual wells was determined in a bioassay for IL-1. This involved the removal of thymuses from mice less than 8 weeks of age. Thymocytes were isolated by passing each thymus through a stainless steel mesh screen. […] After 18 hours cells were harvested and radioactive incorporation (as a measure of cell proliferation) was quantitated in a liquid scintillation counter. The students t test was used to determine the significance of the difference between experimental and control values."}, "[3]": {"test_system": "PGE2 production by BUD-8 skin cell fibroblasts", "test": "PGE2 production by BUD-8 skin cell fibroblasts (radioimmunoassay)", "type": "cell-based, human", "description": "as §1\nAfter 18 hours of culture, samples of the BUD-8 skin cell supernatants were collected from one set of microtiter plates and frozen until assayed for PGE2 or for LTB4 content using the radioimmunoassays described below.\nA radioinmunoassay (New England Nuclear) was used to quantitate PGE2 levels in BUD-8 skin cell culture supernatants. Briefly, into each polypropylene tube were mixed 0.1 ml anti-PGE2, 0.1 ml ^125 1-PGE2 and 0.1 ml PGE2 standard or PGE2 containing sample. The BUD-8 skin culture supernatants were diluted 1:2 prior to addition to the radioimmunoassay. Tubes were refrigerated overnight. A polyethylene glycol solution (16%, 6,000 m.w.) was then added to precipitate immune complexes and the radioactivity in the precipitate was counted in a gamma counter."}}, "note": "Entries after “also recorded” stand apart in the source; their conditions may differ."}
{"compound": "CCCCCCCOCCCO[C@@H]1[C@H]2OC(C)(C)O[C@H]2O[C@@H]1[C@H](O)CO", "note": "[IIg]", "values": [{"measurement": "^3 H-Thymidine uptake by BUD-8 skin cells", "setting": "[1]; 1 ug/ml", "result": "6,096 ± 1,352 cpm"}, {"measurement": "^3 H-Thymidine uptake by BUD-8 skin cells", "setting": "[1]; 10 ug/ml", "result": "3,552 ± 994 cpm"}, {"measurement": "^3 H-Thymidine uptake by BUD-8 skin cells", "setting": "[1]; 25 ug/ml", "result": "4,207 ± 450 cpm"}, {"measurement": "^3 H-Thymidine uptake by BUD-8 skin cells", "setting": "[1]; 100 ug/ml", "result": "4,117 ± 481 cpm"}, {"measurement": "^3 H-Thymidine uptake by BUD-8 skin cells", "setting": "[1]; 300 ug/ml", "result": "2,233 ± 244 cpm"}, {"measurement": "^3 H-Thymidine uptake by BUD-8 skin cells", "setting": "[1]; 750 ug/ml", "result": "3,898 ± 1,692 cpm"}, {"measurement": "inhibition at 1 µg/mL", "setting": "[1]; Homo sapiens, Skin fibroblast, 1 ug/ml, read-out: % Effect on BUD-8 proliferation", "result": 1, "unit": "%"}, {"measurement": "inhibition at 10 µg/mL", "setting": "[1]; Homo sapiens, Skin fibroblast, 10 ug/ml, read-out: % Effect on BUD-8 proliferation", "result": 42, "unit": "%"}, {"measurement": "inhibition at 25 µg/mL", "setting": "[1]; Homo sapiens, Skin fibroblast, 25 ug/ml, read-out: % Effect on BUD-8 proliferation", "result": 32, "unit": "%"}, {"measurement": "inhibition at 100 µg/mL", "setting": "[1]; Homo sapiens, Skin fibroblast, 100 ug/ml, read-out: % Effect on BUD-8 proliferation", "result": 33, "unit": "%"}, {"measurement": "inhibition at 300 µg/mL", "setting": "[1]; Homo sapiens, Skin fibroblast, 300 ug/ml, read-out: % Effect on BUD-8 proliferation", "result": 64, "unit": "%"}, {"measurement": "inhibition at 750 µg/mL", "setting": "[1]; Homo sapiens, Skin fibroblast, 750 ug/ml, read-out: % Effect on BUD-8 proliferation", "result": 37, "unit": "%"}, {"measurement": "cell toxicity in BUD-8 cultures, in words", "setting": "BUD-8 skin cells", "result": "Evidence of cell toxicity was observed at the two highest concentrations of compound tested; also recorded: Cell toxicity was again observed in cultures which included 300 and 750 ug/ml of the compound; also recorded: Compound induced cell toxicity was observed only at the highest dose level tested"}, {"measurement": "^3 H-Thymidine uptake by thymocytes", "setting": "[2]; 0.001 ug/ml", "result": "8,823 ± 771 cpm"}, {"measurement": "^3 H-Thymidine uptake by thymocytes", "setting": "[2]; 0.01 ug/ml", "result": "7,873 ± 379 cpm"}, {"measurement": "^3 H-Thymidine uptake by thymocytes", "setting": "[2]; 0.1 ug/ml", "result": "8,790 ± 533 cpm"}, {"measurement": "^3 H-Thymidine uptake by thymocytes", "setting": "[2]; 1 ug/ml", "result": "7,307 ± 680 cpm"}, {"measurement": "^3 H-Thymidine uptake by thymocytes", "setting": "[2]; 2.5 ug/ml", "result": "7,229 ± 471 cpm"}, {"measurement": "^3 H-Thymidine uptake by thymocytes", "setting": "[2]; 10 ug/ml", "result": "4,854 ± 471 cpm"}, {"measurement": "^3 H-Thymidine uptake by thymocytes", "setting": "[2]; 25 ug/ml", "result": "3,265 ± 141 cpm"}, {"measurement": "^3 H-Thymidine uptake by thymocytes", "setting": "[2]; 100 ug/ml", "result": "934 ± 43", "unit": "cpm"}, {"measurement": "inhibition at 0.001 µg/mL", "setting": "[2]; Mus musculus, Peritoneal macrophage, 0.001 ug/ml, read-out: % effect on IL-1 production (thymidine uptake by thymocytes)", "result": -8, "unit": "%"}, {"measurement": "inhibition at 0.01 µg/mL", "setting": "[2]; Mus musculus, Peritoneal macrophage, 0.01 ug/ml, read-out: % effect on IL-1 production (thymidine uptake by thymocytes)", "result": 4, "unit": "%"}, {"measurement": "inhibition at 0.1 µg/mL", "setting": "[2]; Mus musculus, Peritoneal macrophage, 0.1 ug/ml, read-out: % effect on IL-1 production (thymidine uptake by thymocytes)", "result": -14, "unit": "%"}, {"measurement": "inhibition at 2.5 µg/mL", "setting": "[2]; Mus musculus, Peritoneal macrophage, 2.5 ug/ml, read-out: % effect on IL-1 production (thymidine uptake by thymocytes)", "result": 13, "unit": "%"}, {"measurement": "inhibition at 10 µg/mL", "setting": "[2]; Mus musculus, Peritoneal macrophage, 10 ug/ml, read-out: % effect on IL-1 production (thymidine uptake by thymocytes)", "result": 37, "unit": "%"}, {"measurement": "inhibition at 25 µg/mL", "setting": "[2]; Mus musculus, Peritoneal macrophage, 25 ug/ml, read-out: % effect on IL-1 production (thymidine uptake by thymocytes)", "result": 57, "unit": "%"}, {"measurement": "inhibition at 100 µg/mL", "setting": "[2]; Mus musculus, Peritoneal macrophage, 100 ug/ml, read-out: % effect on IL-1 production (thymidine uptake by thymocytes)", "result": 80, "unit": "%"}, {"measurement": "inhibition", "setting": "[2]; Mus musculus, Peritoneal macrophage, read-out: % effect on IL-1 production (thymidine uptake by thymocytes)", "result": 6, "unit": "%"}, {"measurement": "PGE2 in supernatant", "setting": "[3]; 1 ug/ml", "result": "5.2 ± 0.9 pg PGE2 /50 ul supernatant"}, {"measurement": "calculated PGE2 produced/10^5 BUD-8 cells", "setting": "[3]; 1 ug/ml", "result": 157, "unit": "pg per 10^5 cells"}, {"measurement": "PGE2 in supernatant", "setting": "[3]; 10 ug/ml", "result": "5.6 ± 0.4 pg PGE2 /50 ul supernatant"}, {"measurement": "calculated PGE2 produced/10^5 BUD-8 cells", "setting": "[3]; 10 ug/ml", "result": 173, "unit": "pg per 10^5 cells"}, {"measurement": "PGE2 in supernatant", "setting": "[3]; 25 ug/ml", "result": "4.1 ± 0.3 pg PGE2 /50 ul supernatant"}, {"measurement": "calculated PGE2 produced/10^5 BUD-8 cells", "setting": "[3]; 25 ug/ml", "result": 111, "unit": "pg per 10^5 cells"}, {"measurement": "PGE2 in supernatant", "setting": "[3]; 100 ug/ml", "result": "11.0 ± 1.4 pg PGE2 /50 ul supernatant"}, {"measurement": "calculated PGE2 produced/10^5 BUD-8 cells", "setting": "[3]; 100 ug/ml", "result": 388, "unit": "pg per 10^5 cells"}, {"measurement": "PGE2 in supernatant", "setting": "[3]; 300 ug/ml", "result": "19.6 ± 1.6 pg PGE2 /50 ul supernatant"}, {"measurement": "calculated PGE2 produced/10^5 BUD-8 cells", "setting": "[3]; 300 ug/ml", "result": 731, "unit": "pg per 10^5 cells"}, {"measurement": "PGE2 in supernatant", "setting": "[3]; 750 ug/ml", "result": "7.3 ± 0.2 pg PGE2 /50 ul supernatant"}, {"measurement": "calculated PGE2 produced/10^5 BUD-8 cells", "setting": "[3]; 750 ug/ml", "result": 241, "unit": "pg per 10^5 cells"}, {"measurement": "inhibition at 1 µg/mL", "setting": "[3]; Homo sapiens, Fibroblast, 18 h, 1 ug/ml, read-out: % Effect on PGE2 production", "result": 45, "unit": "%"}, {"measurement": "inhibition at 10 µg/mL", "setting": "[3]; Homo sapiens, Fibroblast, 18 h, 10 ug/ml, read-out: % Effect on PGE2 production", "result": 40, "unit": "%"}, {"measurement": "inhibition at 25 µg/mL", "setting": "[3]; Homo sapiens, Fibroblast, 18 h, 25 ug/ml, read-out: % Effect on PGE2 production", "result": 57, "unit": "%"}, {"measurement": "inhibition at 100 µg/mL", "setting": "[3]; Homo sapiens, Fibroblast, 18 h, 100 ug/ml, read-out: % Effect on PGE2 production", "result": -17, "unit": "%"}, {"measurement": "inhibition at 300 µg/mL", "setting": "[3]; Homo sapiens, Fibroblast, 18 h, 300 ug/ml, read-out: % Effect on PGE2 production", "result": -108, "unit": "%"}, {"measurement": "inhibition at 750 µg/mL", "setting": "[3]; Homo sapiens, Fibroblast, 18 h, 750 ug/ml, read-out: % Effect on PGE2 production", "result": 22, "unit": "%"}]}
